Data reported in US5618724A, “Antibiotics GE 37468 A, B and C” (Gruppo Lepetit SpA, priority 1996, dated 1997).

Legend:
[1] = test system: Staphylococcus aureus Smith; settings: Iso-Sensitest broth, 10^4 CFU/ml, 20-24 h, 37° C.
[2] = test system: Enterococcus faecalis ATCC 7080; settings: Iso-Sensitest broth, 10^4 CFU/ml, 20-24 h, 37° C.
[3] = test system: Clostridium perfringens L290; settings: Wilkins-Chalgren broth, 10^5 CFU/ml, 48 h, N2:CO2:H2 (80:10:10)
[4] = test system: Staphylococcus epidermidis ATCC 12228; settings: Iso-Sensitest broth, 10^4 CFU/ml, 20-24 h, 37° C.
[5] = test system: Staphylococcus aureus L165; settings: Iso-Sensitest broth, 10^4 CFU/ml, 20-24 h, 37° C.
[6] = test system: Propionibacterium acnes ATCC 6919; assay: MIC by broth microdilution; assay type: cell-based; settings: Wilkins-Chalgren broth, 10^5 CFU/ml, 48 h, N2:CO2:H2 (80:10:10)
[7] = test system: Staphylococcus haemolyticus L602; settings: Iso-Sensitest broth, 10^4 CFU/ml, 20-24 h, 37° C.

With `Cc1oc2nc1C(=O)NC(CC(N)=O)c1nc(cs1)C(=O)NC(Cc1ccccc1)C1=NC(CS1)C(=O)NC(Cc1ccc(O)cc1)C(=O)N1C(O)CC(C)C1c1nc(cs1)-c1nc(cs1)-c1nc(-c3nc(C(N)=O)cs3)ccc1-2` (centres unmarked) [GE37468B] the M.I.C. [1] was 0.03 microgram/ml, the M.I.C. [2] was 0.03 microgram/ml and the M.I.C. [3] was 0.016 microgram/ml. The M.I.C. [4] was 0.06 microgram/ml, the M.I.C. [5] was 0.03 microgram/ml and the M.I.C. [6] was 0.016 microgram/ml. The M.I.C. [7] was 0.13 microgram/ml.
In the case of `C=C(NC(=O)c1csc(-c2ccc3c(n2)-c2csc(n2)-c2csc(n2)C2C(C)CC(O)N2C(=O)C(Cc2ccc(O)cc2)NC(=O)C2CSC(=N2)C(Cc2ccccc2)NC(=O)c2csc(n2)C(CC(N)=O)NC(=O)c2nc-3oc2C)n1)C(N)=O` (centres unmarked) [GE37468C], the M.I.C. [1] is reported as 0.03 microgram/ml, the M.I.C. [2] is reported as 0.03 microgram/ml and the M.I.C. [3] is reported as 0.016 microgram/ml. It also gave a M.I.C. [4] of 0.25 microgram/ml, a M.I.C. [5] of 0.03 microgram/ml and a M.I.C. [6] of 0.616 microgram/ml. It also gave a M.I.C. [7] of 0.13 microgram/ml.
